Measurements reported in ChEMBL document CHEMBL4196079, “Molecular interaction of novel benzothiazolyl triazolium analogues with calf thymus DNA and HSA-their biological investigation as potent antimicrobial agents” (Eur J Med Chem, 2018).
In brackets after ≈: the same amount, converted by molar mass.

Legend:
Pseudomonas aeruginosa = test: Antibacterial activity against Pseudomonas aeruginosa ATCC 27853 after 24 hrs by NCCLS micro broth dilution method; assay type: functional; conditions: ATCC 27853, 24 h
Micrococcus luteus = test: Antibacterial activity against Micrococcus luteus ATCC 4698 after 24 hrs by micro broth dilution method; assay type: functional; conditions: ATCC 4698, 24 h
Bacillus = test: Antibacterial activity against Bacillus proteus ATCC 13315 after 24 hrs by NCCLS micro broth dilution method; assay type: functional; conditions: ATCC 13315, 24 h
Shigella dysenteriae = test: Antibacterial activity against Shigella dysenteriae after 24 hrs by NCCLS micro broth dilution method; assay type: functional
Cyberlindnera jadinii = test: Antifungal activity against Candida utilis after 24 hrs by NCCLS micro broth dilution method; assay type: functional; conditions: Williopsis jadinii
Escherichia coli [1] = test: Antibacterial activity against Escherichia coli JM109 after 24 hrs by NCCLS micro broth dilution method; assay type: functional; conditions: JM109, 24 h
Escherichia coli [2] = test: Antibacterial activity against Escherichia coli DH52 after 24 hrs by NCCLS micro broth dilution method; assay type: functional; conditions: DH52, 24 h
Bacillus subtilis = test: Antibacterial activity against Bacillus subtilis ATCC 21216 after 24 hrs by NCCLS micro broth dilution method; assay type: functional; conditions: ATCC 21216, 24 h
Saccharomyces cerevisiae = test: Antifungal activity against Saccharomyces cerevisiae after 24 hrs by NCCLS micro broth dilution method; assay type: functional
Candida albicans = test: Antifungal activity against Candida albicans ATCC 76615 after 24 hrs by NCCLS micro broth dilution method; assay type: functional; conditions: ATCC 76615, 24 h
Aspergillus flavus = test: Antifungal activity against Aspergillus flavus after 24 hrs by NCCLS micro broth dilution method; assay type: functional
Salmonella typhi = test: Antibacterial activity against Salmonella typhi after 24 hrs by NCCLS micro broth dilution method; assay type: functional, Salmonella enterica subsp. enterica serovar Typhi; conditions: Salmonella enterica
Pichia norvegensis = test: Antifungal activity against Candida mycoderma after 24 hrs by NCCLS micro broth dilution method; assay type: functional
Staphylococcus aureus [3] = test: Antibacterial activity against Staphylococcus aureus ATCC 25923 after 24 hrs by NCCLS micro broth dilution method; assay type: functional; conditions: ATCC 25923, 24 h
Staphylococcus aureus [4] = test: Antibacterial activity against methicillin-resistant Staphylococcus aureus N315 after 24 hrs by NCCLS micro broth dilution method; assay type: functional; conditions: N315, 24 h

SMILES	MIC (Pseudomonas aeruginosa)	MIC (Micrococcus luteus)	MIC (Bacillus)	MIC (Shigella dysenteriae)	MIC (Cyberlindnera jadinii)	MIC (Escherichia coli [1])	MIC (Escherichia coli [2])	MIC (Bacillus subtilis)	MIC (Saccharomyces cerevisiae)	MIC (Candida albicans)	MIC (Aspergillus flavus)	MIC (Salmonella typhi)	MIC (Pichia norvegensis)	MIC (Staphylococcus aureus [3])	MIC (Staphylococcus aureus [4])
CCOc1ccc2c(c1)sc1nc(-c3ccccc3)c(COCc3cn(Cc4ccc(Cl)cc4Cl)nn3)n12	32 µg/mL (≈ 56.7 µM)	64 µg/mL (≈ 113 µM)	16 µg/mL (≈ 28.3 µM)	32 µg/mL (≈ 56.7 µM)	8 µg/mL (≈ 14.2 µM)	64 µg/mL (≈ 113 µM)	64 µg/mL (≈ 113 µM)	32 µg/mL (≈ 56.7 µM)	32 µg/mL (≈ 56.7 µM)	1 µg/mL (≈ 1.77 µM)	64 µg/mL (≈ 113 µM)	64 µg/mL (≈ 113 µM)	4 µg/mL (≈ 7.09 µM)	64 µg/mL (≈ 113 µM)	64 µg/mL (≈ 113 µM)
Clc1ccc(Cn2cc(COCc3c(-c4ccccc4)nc4sc5ccccc5n34)nn2)c(Cl)c1	8 µg/mL (≈ 15.4 µM)	32 µg/mL (≈ 61.5 µM)	32 µg/mL (≈ 61.5 µM)	64 µg/mL (≈ 123 µM)	32 µg/mL (≈ 61.5 µM)	64 µg/mL (≈ 123 µM)	16 µg/mL (≈ 30.7 µM)	64 µg/mL (≈ 123 µM)	64 µg/mL (≈ 123 µM)	32 µg/mL (≈ 61.5 µM)	256 µg/mL (≈ 492 µM)	64 µg/mL (≈ 123 µM)	32 µg/mL (≈ 61.5 µM)	64 µg/mL (≈ 123 µM)	32 µg/mL (≈ 61.5 µM)
CCCCCCCn1cc(COCc2c(-c3ccccc3)nc3sc4ccccc4n23)nn1	64 µg/mL (≈ 139 µM)	128 µg/mL (≈ 278 µM)	64 µg/mL (≈ 139 µM)	128 µg/mL (≈ 278 µM)	16 µg/mL (≈ 34.8 µM)	128 µg/mL (≈ 278 µM)	64 µg/mL (≈ 139 µM)	128 µg/mL (≈ 278 µM)	32 µg/mL (≈ 69.6 µM)	32 µg/mL (≈ 69.6 µM)	256 µg/mL (≈ 557 µM)	64 µg/mL (≈ 139 µM)	32 µg/mL (≈ 69.6 µM)	128 µg/mL (≈ 278 µM)	128 µg/mL (≈ 278 µM)
CCCCCCn1cc(COCc2c(-c3ccccc3)nc3sc4cc(OCC)ccc4n23)nn1	128 µg/mL (≈ 261 µM)	128 µg/mL (≈ 261 µM)	128 µg/mL (≈ 261 µM)	128 µg/mL (≈ 261 µM)	16 µg/mL (≈ 32.7 µM)	64 µg/mL (≈ 131 µM)	128 µg/mL (≈ 261 µM)	128 µg/mL (≈ 261 µM)	32 µg/mL (≈ 65.4 µM)	64 µg/mL (≈ 131 µM)	128 µg/mL (≈ 261 µM)	128 µg/mL (≈ 261 µM)	16 µg/mL (≈ 32.7 µM)	128 µg/mL (≈ 261 µM)	64 µg/mL (≈ 131 µM)
Clc1ccc(Cn2cc(COCc3c(-c4ccccc4)nc4sc5ccccc5n34)nn2)cc1Cl	16 µg/mL (≈ 30.7 µM)	32 µg/mL (≈ 61.5 µM)	8 µg/mL (≈ 15.4 µM)	32 µg/mL (≈ 61.5 µM)	64 µg/mL (≈ 123 µM)	64 µg/mL (≈ 123 µM)	64 µg/mL (≈ 123 µM)	16 µg/mL (≈ 30.7 µM)	64 µg/mL (≈ 123 µM)	32 µg/mL (≈ 61.5 µM)	256 µg/mL (≈ 492 µM)	64 µg/mL (≈ 123 µM)	32 µg/mL (≈ 61.5 µM)	64 µg/mL (≈ 123 µM)	16 µg/mL (≈ 30.7 µM)
Fc1ccccc1Cn1cc(COCc2c(-c3ccccc3)nc3sc4ccccc4n23)nn1	128 µg/mL (≈ 273 µM)	64 µg/mL (≈ 136 µM)	128 µg/mL (≈ 273 µM)	128 µg/mL (≈ 273 µM)	16 µg/mL (≈ 34.1 µM)	128 µg/mL (≈ 273 µM)	128 µg/mL (≈ 273 µM)	128 µg/mL (≈ 273 µM)	64 µg/mL (≈ 136 µM)	32 µg/mL (≈ 68.2 µM)	128 µg/mL (≈ 273 µM)	64 µg/mL (≈ 136 µM)	16 µg/mL (≈ 34.1 µM)	64 µg/mL (≈ 136 µM)	32 µg/mL (≈ 68.2 µM)
Clc1cccc(Cn2cc(COCc3c(-c4ccccc4)nc4sc5ccccc5n34)nn2)c1	32 µg/mL (≈ 65.8 µM)	32 µg/mL (≈ 65.8 µM)	64 µg/mL (≈ 132 µM)	32 µg/mL (≈ 65.8 µM)	32 µg/mL (≈ 65.8 µM)	64 µg/mL (≈ 132 µM)	64 µg/mL (≈ 132 µM)	32 µg/mL (≈ 65.8 µM)	64 µg/mL (≈ 132 µM)	8 µg/mL (≈ 16.5 µM)	128 µg/mL (≈ 263 µM)	64 µg/mL (≈ 132 µM)	16 µg/mL (≈ 32.9 µM)	64 µg/mL (≈ 132 µM)	32 µg/mL (≈ 65.8 µM)
O=[N+]([O-])c1ccc(Cn2cc(COCc3c(-c4ccccc4)nc4sc5ccccc5n34)nn2)cc1	64 µg/mL (≈ 129 µM)	64 µg/mL (≈ 129 µM)	32 µg/mL (≈ 64.4 µM)	32 µg/mL (≈ 64.4 µM)	32 µg/mL (≈ 64.4 µM)	4 µg/mL (≈ 8.06 µM)	16 µg/mL (≈ 32.2 µM)	64 µg/mL (≈ 129 µM)	32 µg/mL (≈ 64.4 µM)	32 µg/mL (≈ 64.4 µM)	256 µg/mL (≈ 516 µM)	8 µg/mL (≈ 16.1 µM)	32 µg/mL (≈ 64.4 µM)	32 µg/mL (≈ 64.4 µM)	32 µg/mL (≈ 64.4 µM)
Fc1cccc(Cn2cc(COCc3c(-c4ccccc4)nc4sc5ccccc5n34)nn2)c1	128 µg/mL (≈ 273 µM)	128 µg/mL (≈ 273 µM)	64 µg/mL (≈ 136 µM)	128 µg/mL (≈ 273 µM)	8 µg/mL (≈ 17 µM)	16 µg/mL (≈ 34.1 µM)	32 µg/mL (≈ 68.2 µM)	64 µg/mL (≈ 136 µM)	32 µg/mL (≈ 68.2 µM)	16 µg/mL (≈ 34.1 µM)	128 µg/mL (≈ 273 µM)	128 µg/mL (≈ 273 µM)	8 µg/mL (≈ 17 µM)	128 µg/mL (≈ 273 µM)	16 µg/mL (≈ 34.1 µM)
CCCCCn1cc(COCc2c(-c3ccccc3)nc3sc4ccccc4n23)nn1	128 µg/mL (≈ 297 µM)	128 µg/mL (≈ 297 µM)	64 µg/mL (≈ 148 µM)	4 µg/mL (≈ 9.27 µM)	8 µg/mL (≈ 18.5 µM)	64 µg/mL (≈ 148 µM)	32 µg/mL (≈ 74.1 µM)	64 µg/mL (≈ 148 µM)	32 µg/mL (≈ 74.1 µM)	32 µg/mL (≈ 74.1 µM)	256 µg/mL (≈ 593 µM)	4 µg/mL (≈ 9.27 µM)	16 µg/mL (≈ 37.1 µM)	64 µg/mL (≈ 148 µM)	8 µg/mL (≈ 18.5 µM)
OC(Cn1cncn1)(Cn1cncn1)c1ccc(F)cc1F [FLUCONAZOLE]					8 µg/mL (≈ 26.1 µM)				16 µg/mL (≈ 52.2 µM)	1 µg/mL (≈ 3.27 µM)	256 µg/mL (≈ 836 µM)		4 µg/mL (≈ 13.1 µM)		
CCn1cc(C(=O)O)c(=O)c2cc(F)c(N3CCNCC3)cc21 [NORFLOXACIN]	16 µg/mL (≈ 50.1 µM)	2 µg/mL (≈ 6.26 µM)	8 µg/mL (≈ 25.1 µM)	16 µg/mL (≈ 50.1 µM)		1 µg/mL (≈ 3.13 µM)	1 µg/mL (≈ 3.13 µM)	4 µg/mL (≈ 12.5 µM)				4 µg/mL (≈ 12.5 µM)		2 µg/mL (≈ 6.26 µM)	8 µg/mL (≈ 25.1 µM)
